Measured values published in patent publication US9844536B2, “3-(1H-imidazo[4,5-C]pyridin-2-yl)-1H-pyrazolo[3,4-C]pyridine and therapeutic uses thereof” (Samumed, LLC, priority 2014, dated 2017).

How the values were obtained:
[1] = system: LL29 cells; assay: Inhibition of the fibrotic process (αSMA staining) in TGF-β1 treated primary human fibroblasts from IPF patients; format: cell-based; settings: Fibroblast, 96 h, TGF-β1 20 ng/mL, 4 days, dose-response 10 μM to 1.87 nM, read-out: Inhibition of fibrosis EC50
Procedure, shortened: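 LL29 IPF lung fibroblasts in 1% FBS were stimulated with TGF-β1 (20 ng/mL) and treated 4 days at 37 °C with compound (11 points, 10 μM–1.87 nM, 0.1% DMSO). The % αSMA-positive cells, imaged after excluding SYTOX-positive dead cells, was normalized to TGF-β1/DMSO wells. EC50 came from nonlinear regression over triplicates.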

[2] = system: Wnt pathway (Sp5-Luc reporter, SW480 cells); assay: Sp5-Luc reporter gene screening assay for Wnt activity in SW480 colon carcinoma cells; format: cell-based; settings: Homo sapiens
Procedure, shortened: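 IC50 values come from variable-slope four-parameter fits of luciferase signal normalized to DMSO wells. Stable Sp5-Luc reporter SW480 colon carcinoma cells were exposed to compounds in a 3-fold dilution series (source plates from 10 mM stock) for forty-two hours at 37 °C.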

## Cc1ccc(-c2nccc3[nH]c(-c4n[nH]c5cnc(-c6cncc(NC(=O)C(C)(C)C)c6)cc45)nc23)s1 [Compound 372, N-(5-(3-(4-(5-Methylthiophen-2-yl)-1H-imidazo[4,5-c]pyridin-2-yl)-1H-pyrazolo[3,4-c]pyridin-5-yl)pyridin-3-yl)pivalamide]
[1]
  EC50: 1.08 µM
[2]
  IC50: 0.0246 µM

## Cc1ccc(-c2nccc3[nH]c(-c4n[nH]c5cnc(-c6cncc(NC(=O)C(C)C)c6)cc45)nc23)s1 [Compound 373, N-(5-(3-(4-(5-Methylthiophen-2-yl)-1H-imidazo[4,5-c]pyridin-2-yl)-1H-pyrazolo[3,4-c]pyridin-5-yl)pyridin-3-yl)isobutyramide]
[1]
  EC50: ≤ 0.009 µM
[2]
  IC50: 0.0099 µM

## Cc1ccc(-c2nccc3[nH]c(-c4n[nH]c5cnc(-c6cncc(CN7CCCCC7)c6)cc45)nc23)s1 [Compound 379, 3-(4-(5-Methylthiophen-2-yl)-1H-imidazo[4,5-c]pyridin-2-yl)-5-(5-(piperidin-1-ylmethyl)pyridin-3-yl)-1H-pyrazolo[3,4-c]pyridine]
[1]
  EC50: ≤ 0.009 µM
[2]
  IC50: 0.0732 µM

## Cc1ccc(-c2nccc3[nH]c(-c4n[nH]c5cnc(-c6cncc(NC(=O)C7CCCC7)c6)cc45)nc23)s1 [Compound 385, N-(5-(3-(4-(5-Methylthiophen-2-yl)-1H-imidazo[4,5-c]pyridin-2-yl)-1H-pyrazolo[3,4-c]pyridin-5-yl)pyridin-3-yl)cyclopentanecarboxamide]
[1]
  EC50: ≤ 0.009 µM
[2]
  IC50: 0.166 µM

## CC(=O)c1ccc(-c2nccc3[nH]c(-c4n[nH]c5cnc(-c6cncc(NC(=O)Cc7ccccc7)c6)cc45)nc23)s1 [Compound 400, N-(5-(3-(4-(5-Acetylthiophen-2-yl)-1H-imidazo[4,5-c]pyridin-2-yl)-1H-pyrazolo[3,4-c]pyridin-5-yl)pyridin-3-yl)-2-phenylacetamide]
[1]
  EC50: ≤ 0.009 µM
[2]
  IC50: > 10 µM

## CC(=O)c1ccc(-c2nccc3[nH]c(-c4n[nH]c5cnc(-c6cncc(NC(=O)CC(C)(C)C)c6)cc45)nc23)s1 [Compound 406, N-(5-(3-(4-(5-Acetylthiophen-2-yl)-1H-imidazo[4,5-c]pyridin-2-yl)-1H-pyrazolo[3,4-c]pyridin-5-yl)pyridin-3-yl)-3,3-dimethylbutanamide]
[1]
  EC50: ≥ 9.99 µM
[2]
  IC50: 1.92 µM

## CC(=O)c1ccc(-c2nccc3[nH]c(-c4n[nH]c5cnc(-c6cncc(NC(=O)C7CCCCC7)c6)cc45)nc23)s1 [Compound 412, N-(5-(3-(4-(5-Acetylthiophen-2-yl)-1H-imidazo[4,5-c]pyridin-2-yl)-1H-pyrazolo[3,4-c]pyridin-5-yl)pyridin-3-yl)cyclohexanecarboxamide]
[1]
  EC50: ≤ 0.009 µM
[2]
  IC50: > 10 µM

## CS(=O)(=O)NCc1cc(F)cc(-c2nccc3[nH]c(-c4n[nH]c5cnc(-c6cncc(NC(=O)c7ccccc7)c6)cc45)nc23)c1 [Compound 427, N-(5-(3-(4-(3-Fluoro-5-(methylsulfonamidomethyl)phenyl)-1H-imidazo[4,5-c]pyridin-2-yl)-1H-pyrazolo[3,4-c]pyridin-5-yl)pyridin-3-yl)benzamide]
[1]
  EC50: ≥ 9.99 µM
[2]
  IC50: > 10 µM

## CCCC(=O)Nc1cncc(-c2cc3c(-c4nc5c(-c6cc(F)cc(CNS(C)(=O)=O)c6)nccc5[nH]4)n[nH]c3cn2)c1 [Compound 433, N-(5-(3-(4-(3-Fluoro-5-(methylsulfonamidomethyl)phenyl)-1H-imidazo[4,5-c]pyridin-2-yl)-1H-pyrazolo[3,4-c]pyridin-5-yl)pyridin-3-yl)butyramide]
[1]
  EC50: 0.195 µM
[2]
  IC50: > 10 µM

## CS(=O)(=O)NCc1cc(F)cc(-c2nccc3[nH]c(-c4n[nH]c5cnc(-c6cncc(CNCc7ccccc7)c6)cc45)nc23)c1 [Compound 439, N-(3-(2-(5-(5-((Benzylamino)methyl)pyridin-3-yl)-1H-pyrazolo[3,4-c]pyridin-3-yl)-1H-imidazo[4,5-c]pyridin-4-yl)-5-fluorobenzyl)methanesulfonamide]
[1]
  EC50: ≤ 0.009 µM
[2]
  IC50: 0.0673 µM

## CS(=O)(=O)NCc1cc(F)cc(-c2nccc3[nH]c(-c4n[nH]c5cnc(-c6cncnc6)cc45)nc23)c1 [Compound 442, N-(3-Fluoro-5-(2-(5-(pyrimidin-5-yl)-1H-pyrazolo[3,4-c]pyridin-3-yl)-1H-imidazo[4,5-c]pyridin-4-yl)benzyl)methanesulfonamide]
[1]
  EC50: ≤ 0.009 µM
[2]
  IC50: 0.0308 µM

## CCNCc1cncc(-c2cc3c(-c4nc5c(-c6cc(F)cc(NCCN(C)C)c6)nccc5[nH]4)n[nH]c3cn2)c1 [Compound 448, N^1-(3-(2-(5-(5-((Ethylamino)methyl)pyridin-3-yl)-1H-pyrazolo[3,4-c]pyridin-3-yl)-1H-imidazo[4,5-c]pyridin-4-yl)-5-fluorophenyl)-N2,N2-dimethylethane-1,2-diamine]
[1]
  EC50: ≥ 9.99 µM
[2]
  IC50: 0.394 µM

## CC(C)Nc1cncc(-c2cc3c(-c4nc5c(-c6cc(F)cc(NCCN(C)C)c6)nccc5[nH]4)n[nH]c3cn2)c1 [Compound 454, N^1-(3-Fluoro-5-(2-(5-(5-(isopropylamino)pyridin-3-yl)-1H-pyrazolo[3,4-c]pyridin-3-yl)-1H-imidazo[4,5-c]pyridin-4-yl)phenyl)-N2,N2-dimethylethane-1,2-diamine]
[1]
  EC50: 1.62 µM
[2]
  IC50: 0.266 µM

## CCCCC(=O)Nc1cncc(-c2cc3c(-c4nc5c(-c6cc(F)cc(NCCN(C)C)c6)nccc5[nH]4)n[nH]c3cn2)c1 [Compound 460, N-(5-(3-(4-(3-((2-(Dimethylamino)ethyl)amino)-5-fluorophenyl)-1H-imidazo[4,5-c]pyridin-2-yl)-1H-pyrazolo[3,4-c]pyridin-5-yl)pyridin-3-yl)pentanamide]
[1]
  EC50: ≥ 9.99 µM
[2]
  IC50: 0.203 µM

## CN(C)CCNc1cc(F)cc(-c2nccc3[nH]c(-c4n[nH]c5cnc(-c6cncc(CNCC7CCCC7)c6)cc45)nc23)c1 [Compound 466, N^1-(3-(2-(5-(5-(((Cyclopentylmethyl)amino)methyl)pyridin-3-yl)-1H-pyrazolo[3,4-c]pyridin-3-yl)-1H-imidazo[4,5-c]pyridin-4-yl)-5-fluorophenyl)-N2,N2-dimethylethane-1,2-diamine]
[1]
  EC50: 0.074 µM
[2]
  IC50: 0.343 µM

## Fc1cccc(-c2nccc3[nH]c(-c4n[nH]c5cnc(C6CCNCC6)cc45)nc23)c1 [Compound 937, 3-(4-(3-Fluorophenyl)-1H-imidazo[4,5-c]pyridin-2-yl)-5-(piperidin-4-yl)-1H-pyrazolo[3,4-c]pyridine]
[1]
  EC50: 2.61 µM
[2]
  IC50: > 10 µM

## Fc1cccc(-c2nccc3[nH]c(-c4n[nH]c5cnc(C6=CCNCC6)cc45)nc23)c1 [Compound 938, 3-(4-(3-Fluorophenyl)-1H-imidazo[4,5-c]pyridin-2-yl)-5-(1,2,3,6-tetrahydropyridin-4-yl)-1H-pyrazolo[3,4-c]pyridine]
[1]
  EC50: 0.198 µM
[2]
  IC50: 0.125 µM

## Fc1cccc(-c2nccc3[nH]c(-c4n[nH]c5cnc(-c6cn[nH]c6)cc45)nc23)c1 [Compound 939, 3-(4-(3-Fluorophenyl)-1H-imidazo[4,5-c]pyridin-2-yl)-5-(1H-pyrazol-4-yl)-1H-pyrazolo[3,4-c]pyridine]
[1]
  EC50: ≤ 0.009 µM
[2]
  IC50: 0.001 µM

## Cc1ncc(-c2cc3c(-c4nc5c(-c6cccc(F)c6)nccc5[nH]4)n[nH]c3cn2)n1C [Compound 941, 5-(1,2-Dimethyl-1H-imidazol-5-yl)-3-(4-(3-fluorophenyl)-1H-imidazo[4,5-c]pyridin-2-yl)-1H-pyrazolo[3,4-c]pyridine]
[1]
  EC50: 0.076 µM
[2]
  IC50: 1.01 µM

## O=C(CC1CCNCC1)Nc1cncc(-c2cc3c(-c4nc5c(-c6cccc(F)c6)nccc5[nH]4)n[nH]c3cn2)c1 [Compound 945, N-(5-(3-(4-(3-Fluorophenyl)-1H-imidazo[4,5-c]pyridin-2-yl)-1H-pyrazolo [3,4-c]pyridin-5-yl)pyridin-3-yl)-2-(piperidin-4-yl)acetamide]
[1]
  EC50: 0.06 µM
[2]
  IC50: > 10 µM

## Oc1cncc(-c2cc3c(-c4nc5c(-c6cccc(F)c6)nccc5[nH]4)n[nH]c3cn2)c1 [Compound 949, 5-(3-(4-(3-Fluorophenyl)-1H-imidazo[4,5-c]pyridin-2-yl)-1H-pyrazolo[3,4-c]pyridin-5-yl)pyridin-3-ol]
[1]
  EC50: ≥ 9.99 µM
[2]
  IC50: 0.028 µM

## Fc1cccc(-c2nccc3[nH]c(-c4n[nH]c5cnc(-c6ccccn6)cc45)nc23)c1 [Compound 953, 3-(4-(3-Fluorophenyl)-1H-imidazo[4,5-c]pyridin-2-yl)-5-(pyridin-2-yl)-1H-pyrazolo[3,4-c]pyridine]
[1]
  EC50: 1.94 µM
[2]
  IC50: 0.32 µM

## Fc1cccc(-c2nccc3[nH]c(-c4n[nH]c5cnc(-c6cnccn6)cc45)nc23)c1 [Compound 954, 3-(4-(3-Fluorophenyl)-1H-imidazo[4,5-c]pyridin-2-yl)-5-(pyrazin-2-yl)-1H-pyrazolo[3,4-c]pyridine]
[1]
  EC50: ≥ 9.99 µM
[2]
  IC50: 0.02 µM

## CC(C)CC(=O)Nc1cncc(-c2cc3c(-c4nc5c(-c6cc(O)cc(F)c6)nccc5[nH]4)n[nH]c3cn2)c1 [Compound 1350, N-(5-(3-(4-(3-Fluoro-5-hydroxyphenyl)-1H-imidazo[4,5-c]pyridin-2-yl)-1H-pyrazolo[3,4-c]pyridin-5-yl)pyridin-3-yl)-3-methylbutanamide]
[1]
  EC50: 0.135 µM
[2]
  IC50: 0.135 µM

## COc1cc(F)cc(-c2nccc3[nH]c(-c4n[nH]c5cnc(-c6cncc(NC(=O)CC(C)C)c6)cc45)nc23)c1 [Compound 1394, N-(5-(3-(4-(3-Fluoro-5-methoxyphenyl)-1H-imidazo[4,5-c]pyridin-2-yl)-1H-pyrazolo[3,4-c]pyridin-5-yl)pyridin-3-yl)-3-methylbutanamide]
[1]
  EC50: 0.332 µM
[2]
  IC50: 0.151 µM
